Legend:
[1] = target: T1, TPMT Thiopurine S-methyltransferase (Homo sapiens, UniProt P51580); experiment: competitive isoTOP-ABPP; format: binding; parameters: key to isoTOP-ABPP reactivity ratio at lysine P51580_K32: R = MS1 peak area ratio, DMSO (heavy) / compound-treated (light); details: 50 uM, 231 sol, in vitro; for R value (DMSO/fragment) for probe 1 labeling: P51580_K32
T1 construct: isoTOP-ABPP experiments performed in cell lysates (in vitro); endogenous in cells; host or cells: soluble proteome of human cancer cell lines (MDA-MB-231; Ramos and Jurkat also prepared)
T1 sequence (P51580 1-245): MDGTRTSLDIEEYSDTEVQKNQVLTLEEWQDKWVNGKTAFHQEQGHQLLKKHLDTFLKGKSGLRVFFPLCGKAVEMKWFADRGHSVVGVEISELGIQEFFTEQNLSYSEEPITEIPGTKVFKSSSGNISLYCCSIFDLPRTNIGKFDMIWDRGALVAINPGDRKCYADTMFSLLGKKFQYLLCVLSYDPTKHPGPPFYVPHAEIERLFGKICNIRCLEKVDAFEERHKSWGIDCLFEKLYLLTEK
Description: (§1) In vitro covalent fragment treatment for isoTOP-ABPP. All compounds were made up as solutions in DMSO (100×) and were used at a final concentration of 50 μM for activated esters and 100 μM for guanidinylating agents. For each profiling sample, 0.5 ml of lysate was treated with 5 μl of the 100× compound stock solution or 5 μl of DMSO. Samples were treated with activated esters for
(§2) STP-alkyne labeling and click chemistry. For concentration-dependent reactivity measurements by isoTOP-ABPP, 0.5 ml proteome aliquots were treated at ambient temperature with 1 mM STP-alkyne 1 (5 μl of 100 mM stock in DMSO) and 0.1 mM STP alkyne 1 (5 μl of 10 mM stock in DMSO), respectively. For competitive isoTOP-ABPP, after in vitro fragment treatment (detailed above), the samples were labeled for 1 h at ambient temperature with 0.1 mM STP-alkyne 1 (5 μl of 10 mM stock in DMSO). Samples were conjugated by copper-mediated azide-alkyne cycloaddition (CuAAC) to either the light (1 mM STP-alkyne or fragment treated) or heavy (0.1 mM STP-alkyne or DMSO treated) TEV tags (10 μl of 5 mM stocks in DMSO, final concentration=100 μM) using tris(2-carboxyethyl)phosphine hydrochloride
(§3) R value calculation and processing. The ratios of light and heavy MS1 peaks for each unique peptide were quantified with a CIMAGE software using default parameters (3 MS1 acquisitions per peak and signal to noise threshold set to 2.5). For reactivity measurements by isoTOP-ABPP, the R value was calculated from the ratio of MS1 peak areas, comparing the 1 mM STP alkyne sample (light TEV tag) with the 0.1 mM STP alkyne sample (heavy TEV tag). For competitive isoTOP-ABPP, the R value was calculated from the ratio of MS1 peak areas, comparing the DMSO treated sample (heavy TEV tag) with the compound treated sample (light TEV tag). […] Ratios for unique peptide entries are calculated for each experiment; overlapping peptides with the same modified lysine (for example, different charge states, MudPIT chromatographic steps or tryptic termini) are grouped together and the median ratio is reported as the final ratio (R). The peptide ratios reported by CIMAGE were further filtered to ensure the removal or correction of low-quality ratios in each individual data set. The quality filters applied were the following: removal of half tryptic peptides; for ratios with high standard deviations from the median (90% of the median or above) the lowest ratio was taken instead of the median; removal of peptides with R=20 and only a single MS2 event triggered during the elution of the parent ion; manual annotation of all the peptides with ratios of 20, removing any peptides with low quality elution profiles that remained after the previous curation steps (only done for competitive isoTOP-ABPP).
(§4) Cross-data processing for fragment screening. For compound treated samples, biological replicates of the same condition were averaged, if the standard deviation was below 60% of the mean; otherwise, for lysines with at least one R value <4 for a particular compound, the lowest value of the ratio set was taken. For lysines, where all R values for a particular compound were ≥4, the average was reported. For peptides containing several possible modified lysines, the lysine with the highest number of quantification events was used for analysis and the remaining, redundant peptides were reported as alternative modification sites. Peptides included in the aggregate dataset (those used for further bioinformatics and statistical analyses) were required to have been quantified in 2 experiments for competitive isoTOP-ABPP. Lysines were categorized as liganded, if they had at least one ratio R≥4 (hit fragments). For liganded lysines with R=20 for all liganding events, lysines were required to have been quantified with R=20 in two separate experiments and were further required to have been quantified with R<20 in one additional experiment.

[2] = target: T2, ACBD3 Golgi resident protein GCP60 (Homo sapiens, UniProt Q9H3P7); experiment: competitive isoTOP-ABPP; format: binding; parameters: key to isoTOP-ABPP reactivity ratio at lysine Q9H3P7_K117: R = MS1 peak area ratio, DMSO (heavy) / compound-treated (light); details: for R value (DMSO/fragment) for probe 1 labeling: Q9H3P7_K117; for R value (DMSO/fragment) for probe 1 labeling / isoTOP-ABPP reactivity ratio at lysine Q9H3P7_K117: 231 sol
T2 construct: isoTOP-ABPP experiments performed in cell lysates (in vitro); endogenous in cells; host or cells: soluble proteome of human cancer cell lines (MDA-MB-231; Ramos and Jurkat also prepared)
T2 sequence (Q9H3P7 1-528): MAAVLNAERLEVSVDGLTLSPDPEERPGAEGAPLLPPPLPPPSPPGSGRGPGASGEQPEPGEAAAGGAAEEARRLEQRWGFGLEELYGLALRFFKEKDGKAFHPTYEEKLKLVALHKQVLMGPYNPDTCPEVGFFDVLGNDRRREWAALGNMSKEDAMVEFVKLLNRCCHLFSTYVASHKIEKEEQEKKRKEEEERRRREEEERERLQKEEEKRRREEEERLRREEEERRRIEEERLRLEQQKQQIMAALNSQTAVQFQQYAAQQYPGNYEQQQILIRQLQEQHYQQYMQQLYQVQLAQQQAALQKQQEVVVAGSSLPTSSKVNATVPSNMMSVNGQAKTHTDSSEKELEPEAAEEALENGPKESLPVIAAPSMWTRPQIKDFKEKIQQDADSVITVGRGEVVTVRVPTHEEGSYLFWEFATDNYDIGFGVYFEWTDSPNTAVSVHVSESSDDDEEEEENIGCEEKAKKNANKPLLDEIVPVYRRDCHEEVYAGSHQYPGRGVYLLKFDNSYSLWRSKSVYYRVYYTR
Description: as §1, §2, §3, §4

SMILES | R value (DMSO/fragment) for probe 1 labeling [1] | R value (DMSO/fragment) for probe 1 labeling ([2]; 50 uM, in vitro) | isoTOP-ABPP reactivity ratio at lysine P51580_K32 [1] | isoTOP-ABPP reactivity ratio at lysine Q9H3P7_K117 ([2]; 50 uM, in vitro) | further results
O=C(CCc1cn(-c2ccccc2)nc1-c1ccccc1)Oc1c(F)c(F)c(F)c(F)c1F [fragment 19, Pentafluorophenyl 3-(1,3-diphenyl-1H-pyrazol-4-yl)propanoate] | 1.3 | 1.0 | – | – | –
O=C(Oc1c(F)c(F)c(F)c(F)c1F)C(c1ccccc1)c1ccccc1 [fragment 20, Pentafluorophenyl 2,2-diphenylacetate] | 0.9 | 1.2 | – | – | –
O=C(Oc1c(F)c(F)c(F)c(F)c1F)c1cc(C(F)(F)F)cc(C(F)(F)F)c1 [fragment 21, Pentafluorophenyl 3,5-bis(trifluoromethyl)benzoate] | 4.9 | 0.9 | – | – | –
Cn1cc(CC(=O)Oc2c(F)c(F)c(F)c(F)c2F)c2ccccc21 [fragment 22, Pentafluorophenyl 2-(1-methyl-1H-indol-3-yl)acetate] | 1.3 | 1.2 | – | – | –
COc1cc(CCC(=O)Oc2c(F)c(F)c(F)c(F)c2F)cc(OC)c1OC [fragment 23, Pentafluorophenyl 3-(3,4,5-trimethoxyphenyl)propanoate] | 6.4 | 1.2 | – | – | –
O=C(Oc1c(F)c(F)c(F)c(F)c1F)C1CCN(C(=O)OCc2ccccc2)CC1 [fragment 24, 1-Benzyl 4-(pentafluorophenyl) piperidine-1,4-dicarboxylate] | – | – | 1.0 | 1.0 | –
O=C(Oc1c(F)c(F)c(F)c(F)c1F)c1ccc2ccccc2n1 [fragment 25, Pentafluorophenyl quinoline-2-carboxylate] | – | – | 2.9 | 1.7 | –
O=C(CCc1coc2cc(F)ccc2c1=O)Oc1c(F)c(F)c(F)c(F)c1F [fragment 26, Pentafluorophenyl 3-(7-fluoro-4-oxo-4H-chromen-3-yl)propanoate] | – | – | 1.0 | 1.8 | –
O=C(CN1C(=O)c2ccccc2C1=O)Oc1c(F)c(F)c(F)c(F)c1F [fragment 27, Pentafluorophenyl 2-(1,3-dioxoisoindolin-2-yl)acetate] | – | – | 1.3 | 1.9 | –
CCn1cc(C(=O)Oc2c(F)c(F)c(F)c(F)c2F)c(=O)c2ccc(C)nc21 [fragment 28, Pentafluorophenyl 1-ethyl-7-methyl-4-oxo-1,4-dihydro-1,8-naphthyridine-3-carboxylate] | – | – | 1.1 | 1.1 | –
O=C(CCc1cn(-c2ccccc2)nc1-c1ccccc1)Oc1ccc([N+](=O)[O-])cc1[N+](=O)[O-] [fragment 29, 2,4-Dinitrophenyl 3-(1,3-diphenyl-1H-pyrazol-4-yl)propanoate] | – | – | 1.4 | 1.0 | –
O=C(Oc1ccc([N+](=O)[O-])cc1[N+](=O)[O-])C(c1ccccc1)c1ccccc1 [fragment 30, 2,4-Dinitrophenyl 2,2-diphenylacetate] | – | – | 1.5 | 1.7 | –
O=C(Oc1ccc([N+](=O)[O-])cc1[N+](=O)[O-])c1ccc2ccccc2n1 [fragment 35, 2,4-Dinitrophenyl quinoline-2-carboxylate] | – | – | – | – | isoTOP-ABPP ratio (R) at liganded lysine Q9H3P7_K117 ([2]; 50 uM, in vitro, sol, 231): 1.3
COC(=O)NC(=NC(=O)OCC1c2ccccc2-c2ccccc21)n1cccn1 [fragment 49, N-Methoxycarbonyl-N′-9-fluorenylmethoxycarbonyl-pyrazole-1-carboxamidine] | – | – | – | – | isoTOP-ABPP ratio, lysine Q9H3P7_K117 ([2]; 100 uM_231_sol_in vitro): 13.9

— patent US20210255193A1, “LYSINE REACTIVE PROBES AND USES THEREOF” (The Scripps Research Institute, priority 2017, published 2021)
